Measurements reported in PMC10819888, “Benzimidazole-Based Derivatives as Apoptotic Antiproliferative Agents: Design, Synthesis, Docking, and Mechanistic Studies” (Molecules, 2024).

How the values were obtained:
Bax = Bax activation assay; assay type: cell-based, human; conditions: PC-3 cell line
Method: For more details, see Supplementary Materials.
4.2.5. Bax activation assay
Bring all reagents, except the human Bax-α Standard, to room temperature for at least 30 minutes prior to opening. The human Bax -α Standard solution should not be left at room temperature for more than 10 minutes. All standards, controls and samples should be run in duplicate. Refer to the Assay Layout Sheet to determine the number of wells to be used and put any remaining wells with the desiccant back into the pouch and seal the ziploc. Store unused wells at 4 °C. Pipet 100 μL of Assay Buffer into the S0 ( 0 pg/mL standard) wells. Pipet 100 μL of Standards #1 through #6 into the appropriate wells. Pipet 100 μL of the Samples into the appropriate wells. Tap the plate gently to mix the contents. Seal the plate and incubate at room temperature on a plate shaker for 1 hour at ~500 rpm. Empty the contents of the wells and wash by adding 400 μL of wash solution to every well. Repeat the wash 4 more times for a total of 5 washes. After the final wash, empty or aspirate the wells and firmly tap the plate on a lint fr ee paper towel to remove any remaining wash buffer. Pipet 100 μL of yellow Antibody into each well, except the Blank. Seal the plate and incubate at room temperature on a plate shaker for 1 hour at ~500 rpm. Empty the contents of the wells and wash by addi ng 400 μL of […]
the final wash, empty or aspirate the wells and firmly tap the plate on a lint free paper towel to remove any remaining wash buffer. Add 100 μL of blue Co njugate to each well, except the Blank. Seal the plate and incubate at room temperature on a plate shaker for 30 minutes at ~500 rpm. Empty the contents of the wells and wash by adding 400 μL of wash solution to every well. Repeat the wash 4 more times for a total of 5 washes .
After the final wash, empty or aspirate the wells and firmly tap the plate on a lint free paper towel to remove any remaining wash buffer. Pipet 100 μL of Substrate Solution into each well. Incubate for 30 minutes at room temperature on a plate shaker at ~500 rpm. Pipet 100 μL Stop Solution to each well. Blank the plate reader against the Blank wells, read the optical density at 450 nm. Calculate the average net Optical Density (OD) bound for each standard and sample by subtracting the average Blank OD from the average OD for each standard and sample. Using linear graph paper, plot the Average Net OD for each standard versus Bax concentration in each standard.
Approximate a straight line through the points. The concentration of Bax in the unknowns can be determined by interpolation. […]

caspase-8 = experiment: Caspase-8 activation assay; assay type: cell-based, human; conditions: PC-3 cell line
Method: For more details, see Supplementary Materials. […]
the positive wells exceeds the limits of the instrument. The O.D. values at 450 nm can only be read after the Stop Solution has been added to each well. If using a reader that […]
100 μl of Stop Solution to each well. Tap side of plate gently to mix. The solution in the wells should change from blue to yellow. Read the absorbance of each well at 450 nm having blanked the plate reader against a chromogen blank composed of 100 μl each of Stabilized Chromogen and Stop Solution. Read the plate within 2 hours after adding the Stop Solution. Use a curve fitting software to generate the standard curve. A four- […]
Read the concentrations for unknown samples and controls from the standard curve. Multiply value(s) obtained for sample(s) by the appropriate dilution factor to correct for the dilution in step 3. Samples […]
Diluent Buffer and reanalyzed.
4.2.4. Caspase-8 activation assay
Cells were obtained from American Type Culture Collection, cells were grown in RPMI […]
tested for caspase8, and lysed with Cell Extraction Buffer. This lysate was diluted in […]
caspase-8 content. (Cells are Plated in a density of 1.2 – 1.8 × 10,000 cells/well in a volume of 100µl complete growth medium + 100 ul of the tested compound per well in a 96-well plate for 24 hours before the enzyme assay for Tubulin.). The absorbance of each microwell was read on a spectro-photometer at 450 nm. A standard curve is prepared from 7human Caspase-8 standard dilutions and human Caspase-8 concentration determined.

**Q.** Which results are given for `O=C(NN=Cc1ccc([N+](=O)[O-])cc1)c1ccc2[nH]c(-c3ccc(Cl)cc3)nc2c1` [Compound 4c, N′-(4-Nitrobenzylidene)-2-(4-chlorophenyl)-1H-benzimidazole-5-carbohydrazide]?
**A.** Bax Conc (Bax): 185 pg/mL; Bax increase compared to untreated PC-3 cancer cells (Bax): 26 fold; Bax level (Bax): 185 pg/mL; Caspase-8 Conc (caspase-8): 1.90 ng/mL; caspase-8 increase compared to untreated control cell (caspase-8): 16 times; caspase-8 level (caspase-8): 1.90 ng/mL

**Q.** What does the source list for `O=C(NN=Cc1ccc(Cl)cc1)c1ccc2[nH]c(-c3ccc(Cl)cc3)nc2c1` [Compound 4e, N′-(4-Chlorobenzylidene)-2-(4-chlorophenyl)-1H-benzimidazole-5-carbohydrazide]?
**A.** Bax Conc (Bax): 220 pg/mL; Bax increase compared to untreated PC-3 cancer cells (Bax): 31 fold; Bax level (Bax): 220 pg/mL; Bax Fold Change (Bax; vs control): 31; Caspase-8 Conc (caspase-8): 2.20 ng/mL; caspase-8 increase compared to untreated control cell (caspase-8): 18 times; caspase-8 level (caspase-8): 2.20 ng/mL; Caspase-8 Fold Change (caspase-8; vs control): 18
